Experimental data reported in patent publication US12473250B2, “Molecular design of new antibiotics and antibiotic adjuvants against MCR strains” (priority 2019, dated 2025).
“Also recorded” adds a separate entry of the source.

What was measured:
[1] = tested on: KLPN multi-drug resistant strains; test: Synergy of LC100 with colistin against multi-drug resistant strains (Table 5); format: cell-based, Klebsiella pneumonia
Experimental: (§1) The MICs of the individual drugs and LC compound in combinations were determined using the broth microdilution technique as recommended by the CLSI whereby the two anti-microbial agents were added in an equal amount. (e.g.: 50 μL of Colistin: 50 μL of LC compounds). Diluted media containing compounds and antibiotics will be serially diluted 2-fold, and LC compounds and antibiotics alone or in combination will be assayed at fixed synergy concentration. In all cases, the lowest concentration at which no visible growth occurred was be recorded to be the MIC value of individual and combined antibacterial agents. The results were obtained after 24 hours of incubation.

[2] = tested on: ENT CLOACAE multi-drug resistant strains; test: as above; format: cell-based, E. cloacae
Experimental: as §1

[3] = tested on: 6083655967 [MCR 1+; E.Coli]; test: Synergistic study between LC100 or LC101 with B2088; format: cell-based; settings: for Combination MIC: strain 6083655967, value of each component
Experimental: as §1
Using the combination of LC100 and colistin, the activity of a broad range of strains was further tested (Table 7).

[4] = tested on: Gram positive bacteria (SA and MRSA strains); test: Antimicrobial effect on Gram positive bacteria (Table 8); format: cell-based; design: key to antimicrobial effect on Gram positive bacteria: MIC (concentration giving 99% inhibition), concentrations in μg; settings: compound alone
Experimental: (§2) MIC experiments of the antimicrobial agents were determined by a modified broth microdilution method in accordance with the Clinical and Laboratory Standards Institute (CLSI) guidelines using 96 well culture plates. In brief, serial dilutions of all plates were prepared at different concentrations (μg). The inoculum suspension was prepared by adding isolated colonies from a 18-20 hours on TSA plate into phosphate buffer (0.31 mM, pH 7.2) or in water for injection (BBraun) and adjusting the suspension to a turbidity equivalent to 0.5 McFarland Standard. Each well contained a final bacterial concentration of approximately 5×10^5 colony forming units (CFU)/mL. The plate was covered and incubated at 35° C. for 24 hours. […] For the microdilution plates, turbidity in wells can be measured at OD600 using TECAN infinite M200Pro. MIC was determined as […] concentration that gives a 99 percent inhibition.
The antimicrobial activity of the inventive combination was also tested against Gram positive bacteria, including the multi-drug resistant strains, such as MRSA. […] This means the combination of LC100/LC101 with colistin has broad antimicrobial spectrum, being active against both Gram positive and Gram negative bacteria.

MCR-1 protein = target: T1, MCR-1 protein (Escherichia coli, UniProt A0A0R6L508); test: Fluorescence quenching of MCR-1 protein; format: binding; settings: autofluorescence at 323 nm; increasing LC100 concentration
T1 construct: purchased Bioprocessing technology institute, A*STAR (Singapore, Singapore)
Experimental: However, EtBr is membrane impermeable, which means that it can only enter the bacterial cell and bind to DNA and emit fluorescence only when both the bacterial outer and inner membranes are perturbed. […] It is also possible that LC100 may have other targets. One possible target is the MCR-1 protein. To understand the interaction of LC100 and the MCR-1 protein, the fluorescence of MCR-1 protein in the presence of different concentration of LC100 was measured. MCR-1 protein contains several tryptophan residues, and autofluoresces at 323 nm.

[5] = Calcein leakage from large unilamellar vesicles; settings: vesicles of 100 nm, DOPE/DOPG=3/1
From the text: FIG. 20 refers to a graph showing calcein leakage of LC100 and LC101 using large unilamellar vesicles of 100 nm. The lipid composition of the vesicle is DOPE/DOPG=3/1, mimicking the bacterial inner membrane. […] Further increase of LC100 or LC101 leads to decrease in the florescence because of a fluorescence quenching effect.

[6] = tested on: colistin resistant MCR (−) E. Cloacae strain 7023456439; test: MIC, broth microdilution, compound alone; format: cell-based; settings: strain 7023456439 E. Cloacae
In short: (§3)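 Modified CLSI broth microdilution; inoculum from 18–20 h TSA colonies adjusted to 0.5 McFarland, ~5×10^5 CFU/mL per well. Plates incubated 24 h at 35 °C; turbidity may be read at OD600. MIC defined as concentration giving 99% inhibition.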

[7] = tested on: colistin resistant MCR (−) E. Coli strains; test: MIC, broth microdilution, compound alone; format: cell-based
In short: as §3

[8] = tested on: PAE strains (CRE strains, colistin sensitive); test: MIC of polymyxin B or colistin alone (Table 4); format: cell-based, P. aeruginosa; design: unit: μg/mL
Experimental: as §2

T1 sequence (A0A0R6L508 whole entry): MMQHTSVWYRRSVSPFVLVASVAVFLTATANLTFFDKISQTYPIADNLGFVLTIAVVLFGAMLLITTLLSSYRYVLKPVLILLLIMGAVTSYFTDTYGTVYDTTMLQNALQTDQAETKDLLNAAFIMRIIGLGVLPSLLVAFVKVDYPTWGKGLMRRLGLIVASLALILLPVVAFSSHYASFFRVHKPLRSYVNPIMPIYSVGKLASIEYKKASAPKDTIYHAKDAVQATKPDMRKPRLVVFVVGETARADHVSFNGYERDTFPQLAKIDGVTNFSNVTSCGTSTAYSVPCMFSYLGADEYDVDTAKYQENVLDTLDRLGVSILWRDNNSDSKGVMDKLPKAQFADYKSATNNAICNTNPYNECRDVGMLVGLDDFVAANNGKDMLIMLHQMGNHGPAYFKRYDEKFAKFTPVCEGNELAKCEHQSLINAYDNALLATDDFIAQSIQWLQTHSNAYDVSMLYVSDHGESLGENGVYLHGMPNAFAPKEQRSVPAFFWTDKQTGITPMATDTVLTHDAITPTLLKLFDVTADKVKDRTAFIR

CCN(CC)CCCCOc1ccc(/C=C/C(=O)c2ccc(OCCCCN(CC)CC)c(CC=C(C)C)c2O)cc1 [LC100]
Colistin MIC in the presence of LC100 ([1]; strain KLPN 8852, LC 100 2 μg): >25 µg/mL | Colistin MIC in the presence of LC100 ([1]; strain KLPN 8852, LC 100 5 μg): 25 µg/mL | Colistin MIC in the presence of LC100 ([1]; strain KLPN 15588, LC 100 2 μg): 0.39 µg/mL | Colistin MIC in the presence of LC100 ([1]; strain KLPN 15588, LC 100 5 μg): <0.0975 µg/mL | Colistin MIC in the presence of LC100 ([1]; strain KLPN 24076, LC 100 2 μg): 0.39 µg/mL | Colistin MIC in the presence of LC100 ([1]; strain KLPN 24076, LC 100 5 μg): <0.0975 µg/mL | Colistin MIC in the presence of LC100 ([1]; strain KLPN 27025, LC 100 2 μg): 0.195 µg/mL | Colistin MIC in the presence of LC100 ([1]; strain KLPN 27025, LC 100 5 μg): <0.0975 µg/mL | Colistin MIC in the presence of LC100 ([2]; strain ENT CLOACAE 6780, LC 100 2 μg): 0.39 µg/mL | Colistin MIC in the presence of LC100 ([2]; strain ENT CLOACAE 6780, LC 100 5 μg): <0.0975 µg/mL | Colistin MIC in the presence of LC100 ([2]; strain ENT CLOACAE 21489, LC 100 2 μg): 0.195 µg/mL | Colistin MIC in the presence of LC100 ([2]; strain ENT CLOACAE 21489, LC 100 5 μg): <0.0975 µg/mL | Colistin MIC in the presence of LC100 ([2]; strain ENT CLOACAE 30063, LC 100 2 μg): 25 µg/mL | Colistin MIC in the presence of LC100 ([2]; strain ENT CLOACAE 30063, LC 100 5 μg): 6.25 µg/mL | Colistin MIC in the presence of LC100 ([2]; strain ENT CLOACAE 44095, LC 100 2 μg): >25 µg/mL | Colistin MIC in the presence of LC100 ([2]; strain ENT CLOACAE 44095, LC 100 5 μg): >25 µg/mL | Combination MIC ([3]; combination B2088 (Ac) + LC 100): 2 µg/mL | Combination MIC ([3]; combination B2088 + LC 100): 1 µg/mL | level of synergistic effect with B2088 ([3]; killing E. coli with the mcr-1 mutation): 1 µg/mL | activity against Gram positive strains ([4]; in words): good activity | antimicrobial effect on Gram positive bacteria ([4]; strain MRSA ATCC 43300): 3.125 | antimicrobial effect on Gram positive bacteria ([4]; strain MRSA ATCC 700699): 3.125 | antimicrobial effect on Gram positive bacteria ([4]; strain MRSA DM 21455): 3.125 | antimicrobial effect on Gram positive bacteria ([4]; strain SA ATCC 6538): 3.125 | antimicrobial effect on Gram positive bacteria ([4]; strain SA ATCC 29213): 3.125 | antimicrobial effect on Gram positive bacteria ([4]; strain SA DM 4400R): 3.125 | fluorescence of MCR-1 protein (quenching) (MCR-1 protein): the fluorescence decreases | calcein leakage / disruption of vesicles [5]: significant florescence was detected; also recorded: disrupts liposomes

Colistin
MIC [6]: 100 µg/mL | MIC ([7]; strain 6083672926, MCR (−)): 12.5 µg/mL | MIC ([7]; strain 7023446108, MCR (−)): 6.25 µg/mL | MIC ([7]; strain 7033607097, MCR (−)): 6.25 µg/mL | MIC (antibiotic alone) ([8]; strain PAE 4877): 1.56 | MIC (antibiotic alone) ([8]; strain PAE 5790): 1.56 | MIC (antibiotic alone) ([8]; strain PAE 14476): 1.56
